How the values were obtained:
Conditions in all cases: effective concentration of copper cations
Mycrocystis incerta = system: Mycrocystis incerta
Chlorella kessleri = system: Chlorella kessleri
[1] = system: Synechococcus leopoliensis
Scenedesmus quadricauda = system: Scenedesmus quadricauda
Anabaena sp. = system: Anabaena sp.
Raphidocelis subcapitata = system: Raphidocelis subcapitata

## O=S(=O)([O-])[O-].[Cu+2] [copper sulfate]
Mycrocystis incerta
  EC50 (mg/l Cu(II)): 1.26 mg/l Cu(II)
Chlorella kessleri
  EC50 (mg/l Cu(II)): 1.14 mg/l Cu(II)
[1]
  EC50 (mg/l Cu(II)): 1.26 mg/l Cu(II)
Scenedesmus quadricauda
  EC50 (mg/l Cu(II)): 1.15 mg/l Cu(II)
Anabaena sp.
  EC50 (mg/l Cu(II)): 0.50 mg/l Cu(II)
Raphidocelis subcapitata
  EC50 (mg/l Cu(II)): 1.27 mg/l Cu(II)
